For one experiment, the system named is HuH-7. The experiment is described as follows: MTS cell growth assay, HuH-7. The experiment is classed as cell-based. Particulars: Homo sapiens, 48 h incubation. On the technique in general: Tetrazolium dyes change colour on reduction, which living cells bring about.
A further experiment relates to HepG2. In words: MTS cell growth assay, HepG2. The experiment is classed as cell-based. To be noted: Homo sapiens, 48 h incubation.
In another experiment the test system is Hep3B. The experiment is described as follows: MTS cell growth assay, Hep3B. The class given is cell-based. To be noted: Homo sapiens, 48 h incubation.
In the next experiment the test system is HuH-1. The experiment is described as follows: MTS cell growth assay, HuH-1. The experiment is classed as cell-based. To be noted: Homo sapiens, 48 h incubation.
The next experiment relates to HLE. In words: MTS cell growth assay, HLE. To be noted: Homo sapiens, 48 h incubation. The class given is cell-based. The procedure:
(§1) Human HCC cell lines Hep3B, PLC/PRF/5, and SK-Hep1 were obtained from the American Type Culture Collection (Manassas, Va., USA). Other human HCC cell lines HuH-7, HuH-1, HepG2, HLE, and HLF were obtained from the Human Science Research Resources Bank (Osaka, Japan). HuH-7, HepG2, Hep3B, and SK-Hep1 cells were cultured in log growth phase in 1640 RPMI (Invitrogen, Carlsbad, Calif.) and HuH-1, HLE, HLF, and PLC/PRF/5, cells were cultured in Dulbecco's modified Eagle medium (Invitrogen) with 5% fetal bovine serum (Sigma, St. Louis, Mo.) for HLF cells or 10% FBS for the remaining cell lines. All media were supplemented with 1% PenStrep (Sigma). […]
(§2) HCC cell lines were seeded in 96-well plates at 3×10^3 cells per well in a total volume of 50 μl of culture media. […] Cell viability was monitored using CellTiter 96 AQueous One Solution Cell Proliferation Assay Kit (Promega) and half-maximal inhibitory concentration (IC50) values were calculated. The mean values and standard deviations of IC50 were calculated in triplicate for each cell line. […] The remaining viable cells were counted using a Cytorecon (GE Healthcare) after staining with trypan blue to exclude the dead cells. Each analysis was performed in triplicate, and the data expressed as means±standard deviations.

For another experiment, the system named is HLF. The experiment is described as follows: MTS cell growth assay, HLF. The experiment is classed as cell-based. To be noted: Homo sapiens, 48 h incubation. The procedure: as §1, §2
In a further experiment the test system is PLC/PRF/5. The experiment is described as follows: MTS cell growth assay, PLC/PRF/5. The experiment is classed as cell-based. To be noted: Homo sapiens, 48 h incubation. The procedure: as §1, §2
In the next experiment the test system is SK-Hep1 cells. The experiment is described as follows: MTS cell growth assay, SK-Hep1. The experiment is classed as cell-based. Particulars: Homo sapiens, 48 h incubation. The procedure: as §1, §2
The subject of the next experiment is Ep-CAM^low cell lines. In words: Cell proliferation assay (viable cell count, trypan blue), Ep-CAM^low cell lines. To be noted: VB4-845 10 pM and 5-FU 1-5 μg/ml, 48 h; p>0.05. The experiment is classed as cell-based, human. Here is the method: (A) Expression of Ep-CAM was analyzed by flow cytometry in 8 HCC cell lines. […] Cell growth was measured in MTS assays. […] Columns, alive cells (%); vertical bars, standard deviation.
as §2, with “line. To investigate cell viability, HCC cell lines were seeded in 6-well plates at 1×10^5 cells per well in a total volume of 2 ml of culture media.” for “line.”

The subject of experiment [1] is Ep-CAM^high cell lines (HuH-7, HepG2, Hep3B and HuH-1). The experiment is described as follows: Sphere formation assay. The class given is cell-based, human. Particulars: 48 h treatment (VB4-845 1-10 pM, 5-FU 1-5 μg/ml), 7 days of culture.
Protocol: Briefly, 1×10^6 cells of HuH-7, HepG2, Hep3B and HuH-1 were seeded in four 10 cm dishes. […] After 48h, the medium was changed to drug-free medium and incubated for 24 h. After cell viability was confirmed by trypan blue exclusion, the remaining viable cells were collected and plated separately at 1×10^2 cells in low attachment plates (96-well Ultra Low Cluster Plate; Costar, Corning, N.Y.), and incubated in serum-free Dulbecco's modified Eagle medium/F12 medium (Invitrogen). Sphere formation was observed using AxioObserver (Carl Zeiss, Oberkochen, Germany), and the images were acquired digitally using AxioVision software (Carl Zeiss).
Another experiment has as its system CD133. The experiment is described as follows: FACS analysis of stem/progenitor marker CD133 after treatment. The experiment is classed as cell-based, human. To be noted: HuH-7, HepG2, and Hep3B cells, compared with the control. (In general: A flow cytometer gives signals particle by particle.)
For the next experiment, the system named is CD13. In words: FACS analysis of stem/progenitor marker CD13 after treatment. The experiment is classed as cell-based, human. Particulars: HuH-7 and Hep3B cells.
Experiment [2] has as its system HuH-7 subcutaneous xenografts. The experiment is described as follows: Subcutaneous xenograft model. The experiment is classed as in vivo, NOD.CB17-PRkdcScid/J mice. To be noted: three weeks after initiation; VB4-845 30 μg/kg i.v., 5-FU 30 mg/kg i.p., three times a week for 2 weeks.
Protocol: Twenty five-week-old female NOD.CB17-PRkdcScid/J mice purchased from Charles River Laboratory Inc. (Kanagawa, Japan) were injected with 1×10^6 HuH-7 cells mixed with the same amount of Matrigel (BD Biosciences) subcutaneously into the both flanks of mice under anesthesia. […] Tumor size was measured using calipers three times a week and tumor volumes calculated using the following equation: volume=(length)×(width)2×0.5. The mice were sacrificed three weeks after the initiation of treatment.

Structures are written as SMILES. Values after ≈ are worked out from the molar mass of the structure shown.

In general, IC50 refers to the concentration that gives 50% inhibition. A higher IC50 goes with a need for much substance.

Description for CD133: For flow cytometry, FACSCanto™ II (BD Biosciences, San Jose, Calif.) was used. Cancer cells were washed with phosphate-buffered saline, and then enzymatically dissociated with 0.05% trypsin-EDTA (Invitrogen). The trypsinized cells were suspended in FACS buffer, and analyzed on FACSCanto™ II using FACSDiva software (BD Biosciences). For the analysis of hepatic stem/progenitor markers, primary antibodies against Ep-CAM (#324206; Biolegend, San Diego, Calif.), CD13 (#555394; BD Pharmingen), CD44 (#555479; BD Pharmingen), CD90 (#328110; BioLegend), CD133 (#130-080-801; Miltenyi Biotec, Gladbach, Germany), Mouse IgG1 κtype (#555749; BioLegend), and Mouse IgG2b κtype (#400314; BioLegend) were used. All antibodies were conjugated directly with phycoerythrin (PE). The immunostaining and analysis were performed according to the instructions from the manufacturer.

With `O=c1[nH]cc(F)c(=O)[nH]1` [5-FU, 5-fluorouracil], the IC50 was found to be 0.8 ± 0.1 µg/mL (≈ 6.15 µM) in the experiment on HuH-7; 39.5 ± 9.6 µg/mL (≈ 304 µM) in the experiment with HepG2; 5.9 ± 1.8 µg/mL (≈ 45.4 µM) in the experiment with Hep3B; 11.3 ± 6.3 µg/mL (≈ 86.9 µM) with HuH-1; 16.5 ± 6.6 µg/mL (≈ 127 µM) in the experiment on HLE; 33.5 ± 17.2 µg/mL (≈ 258 µM) in the experiment on HLF. Moreover, the concentration for half-maximal inhibition (IC50) came out at 55.6 ± 11.2 µg/mL (≈ 427 µM) in the experiment with PLC/PRF/5 and 4.3 ± 0.5 µg/mL (≈ 33.1 µM) in the experiment with SK-Hep1 cells. The “cell proliferation (alive cells)” value in the experiment on Ep-CAM^low cell lines was “suppressed cell proliferation to the same extent as the combination of VB4-845 and 5-FU”. The “sphere formation by surviving cells” value in experiment [1] was “formed spheres”. The “positive rate of CD133” value with CD133 is recorded as “significantly increased”. The “positive rate of CD13” value in the experiment with CD13 was “significantly increased”. Further, in experiment [2], the volume of tumors was 555±147 mm^3.

The record behind these values is patent US20160060352A1, “COMPOSITIONS AND METHODS FOR DETECTION AND TREATMENT OF HEPA[…]” (VIVENTIA BIO INC., priority 2013, published 2016).
